According to patent publication US12076332B2, “Treatment of lysosomal storage disorders” (The Regents of the University of California, priority 2018, dated 2024):
“Also recorded” adds a separate entry of the source.

Assays:
WT mice [1] = test: IHC anti-LAMP1 on brain sections of WT mice; assay type: in vivo, mouse; settings: daily s.c. injection for 4.5 months
Method: (§1) FIG. 8. […] Images from cerebral cortex shown. […] Three mice for each experiment group.
(§2) For paraffin embedding, mice brain were fixed in 4% paraformaldehyde (PFA) overnight at 4° C., then mice brain were dehydrated in a graded series of ethanol, cleared with xylene, and infiltrated with paraffin. Paraffin-embedded blocks were cut on a microtome in 6-μm sagittal sections. Immunohistochemistry experiments were […] performed using the Universal Vectastain Elite ABC HRP Kit (PK6200, Vector Laboratories). For all immunostainings were used sagittal sections, rinsed in PBS1×-Triton 0.1% and treated with 1% H2O2 for 30 min to quench endogenous peroxidase activity. At this point the sections were exposed at PBS or at Proteinase K digestion (50 μg/ml) for 2 minutes at 37° C. to detect protease resistant structures. After this point the sections were blocked for 1 hour in PBS1×-TritonX-100 0.1%-2% Horse Serum and then incubated with specific antibodies overnight at […], followed by incubation in biotinylated universal antibody (Vector Laboratories) for 90 minutes at room temperature and in ABC reagent (Vector Laboratories) for 45 minutes at room temperature. Sections were dehydrated and then mounted with Leica CV ULTRA (Leica micro systems). Visualization was performed using 3,3-diaminobenzidine tetrahydrochloride (DAB Vector Laboratories). […]

MPS-IIIA mice [2] = test: IHC anti-LAMP1 on brain sections; assay type: in vivo, mouse; settings: daily s.c. injection for 4.5 months
Method: as §1, §2

MPS-IIIA mice [3] = test: Contextual fear conditioning test; assay type: in vivo, mouse; settings: daily s.c. injection for 4.5 months, 9 months of age
From the text: FIG. 7. […] Panel B) TEM analysis of synaptic vesicles number. […] Panel C) Contextual fear condition task.

[4] = systemic administration, mice; cited from earlier work
MPS-IIIA mice [5] = test: GFAP and IBA1 staining of neuro-inflammation in brain; assay type: in vivo, mouse
WT mice [6] = settings: daily s.c. injection for 4.5 months
From the text: Panel C) IHC anti-Lamp-on brain sagittal sections derived from the four experimental groups of mice (WT saline-injected, WT CLR01-injected, MPS-IIIA-saline injected and MPS-IIIA CLR01-injected). Images from cerebral cortex shown. Lamp 1 immuno-reactivity quantified in 10 different fields from the cortical regions for each group. Three mice for each experimental group. ***p<0.001 vs WT; ###P<0.001 vs MPS-IIIA+saline, One-way ANOVA analysis with Bonferroni's multiple comparison test. Panels D and E) TEM analysis to quantify the number/size of lysosomes in the four experimental group of mice. Three mice for each experiment group. Representative TEM images were shown on the left panel. *, **, *** p<0.05, 0.01, 0.001 vs WT; ##, ###, P<0.01, 0.001 vs MPS-IIIA+saline, One-way ANOVA analysis with Bonferroni's multiple comparison test.

WT mice [7] = settings: daily s.c. injection for 4.5 months; remark: listed apart in the source
MPS-IIIA mice [8] = test: TEM analysis of number/size of lysosomes; assay type: in vivo, mouse
From the text: as §1

MPS-IIIA mice [9] = test: Thioflavin S staining of amyloid deposits in brain sections; assay type: in vivo, mouse
From the text: CLR01 was produced in the facility of Professor Gal Bitan (Associate Professor of Neurology, Department of Neurology, University of California, UCLA). […] […] CLR01 dosage has been chosen on the basis of safety and pharmacological characterization of CLR01 in mice (Attar et al. (2014) BMC Parmacol. & Toxicol 15: 23).
After euthanization, mouse brain was collected from each experimental group and perfused with phosphate-buffered saline (PBS pH 7,4) to completely clear blood from tissue. The brains were divided in two equal parts: half of each was frozen in dry ice and used for biochemical analysis. The other halves were fixed in 4% (w/v) paraformaldehyde in PBS and embedded in Optimal cutting temperature compound (OCT compound) or paraffin.
For thioflavin S histochemistry were used cryosections (12 μm), then sections were incubated in 0.1% thioflavin S for 10 min. Slides were immersed to 80% ethanol solution for 5 min, and mounted using FLUORSAVE™ reagent. Positive staining was observed using a Leica DM5500 scan.
The inventors therefore tested whether CLR01 (FIG. 4, panel A), was effective in targeting and destroying amyloid aggregation in MPS IIIA mice. […] Both treatments ended at 7 months of age, when the neuropathological phenotype becomes evident in MPS-IIIA mice (Lau et al. (2008) Behav. Brain Res. 191: 130-136; Sambri et al. (2016) EMBO Mol. Med. e201606965; Sorrentino et al. (2013) EMBO Mol. Med. 5: 675-690; Wilkinson et al. (2012) PloS one, 7: e35787). The two different treatment regimens allowed evaluation of the potential therapeutic effect of CLR01 resulting from either prevention or disassembly of amyloid aggregation.
The potential therapeutic efficacy of CLR01 in MPS-IIIA was further tested by treating MPS-IIIA mice at 4.5 months of age (before massive amyloid aggregation takes place) with daily sub-cutaneous injection of CLR01 over a period of 4.5 months.

MPS-IIIA mice [10] = test: IHC anti-UbK63 on brain sections; assay type: in vivo, mouse; settings: CLR01-treated MPS-IIIA brain vs control MPS-IIIA brain
From the text: (§3) FIG. 9. Panels A and B, show anti-LC3 immunofluorescence on brain sagittal sections from the four experimental groups of mice. The number of LC3-positive dots (either total or large dots) were quantified in 15 different fields from the cortical regions for each group. Three mice for each experimental group. […] Panel C) Immunofluorescence analysis of colocalization in MPS-IIIA mice brain sagittal sections between LC3 (green) and Lamp1 (red), LC3 (green) and Neurofilament (red). […] Images from cerebral cortex shown.
For paraffin embedding, mice brain were fixed in 4% paraformaldehyde (PFA) overnight at 4° C., then mice brain were dehydrated in a graded series of ethanol, cleared with xylene, and infiltrated with paraffin. Paraffin-embedded blocks were cut on a microtome in 6-μm sagittal sections. Immunohistochemistry experiments were […] performed using the Universal Vectastain Elite ABC HRP Kit (PK6200, Vector Laboratories). For all immunostainings were used sagittal sections, rinsed in PBS1×-Triton 0.1% and treated with 1% H2O2 for 30 min to quench endogenous peroxidase activity. […]
(§4) To evaluate whether the normalization of the lysosomal compartment mediated by amyloid deposition inhibition was also associated to a functional recovery of lysosomes, the ALP was analyzed in MPS-IIIA mouse brain upon CLR01 treatment. […]

MPS-IIIA mice [11] = test: Western blot of LC3-II and p62 on brain lysates; assay type: in vivo, mouse
MPS-IIIA mice [12] = settings: MPS-IIIA mouse brain, daily s.c. injection for 4.5 months, 9 months of age
From the text: Panel B) TEM analysis of synaptic vesicles number. […] The arrows indicate the synaptic cleft. ***p<0.0001 vs WT+Saline; ###p<0.0001 vs MPS-IIIA+saline, One-way ANOVA analysis with Bonferroni's multiple comparison test.

[13] = system: mouse models of synucleinopathies and Alzheimer's disease; settings: cited from earlier work
WT mice [14] = test: Anti-LC3 immunofluorescence on brain sections of WT mice; assay type: in vivo, mouse; settings: CLR01-treated WT mice
From the text: as §3
(§5) Medial sagittal sections of frozen brain tissue were cut on a cryostat at either 12 or 40 μm of thickness, permeabilized (PBS, 0.2% Tween[…]20, and 10% fetal bovine serum), and stained with appropriate primary and secondary antibodies overnight at […] Sections were analyzed by Confocal microscope Zeiss LSM 710 using either 63× or 40× objectives. Stained sections were mounted with Vectashield (Vector Laboratories, CA, USA).
as §4

MPS-IIIA mice [15] = test: Anti-LC3 immunofluorescence on brain sections; assay type: in vivo, mouse
From the text: FIG. 9. Panels A and B, show anti-LC3 immunofluorescence on brain sagittal sections from the four experimental groups of mice. The number of LC3-positive dots (either total or large dots) were quantified in 15 different fields from the cortical regions for each group. Three mice for each experimental group. […] Panel C) Immunofluorescence analysis of colocalization in MPS-IIIA mice brain sagittal sections between LC3 (green) and Lamp1 (red), LC3 (green) and Neurofilament (red). […] Panel E) Immunohistochemistry analysis of anti-Ubiquitin K63 signal on brain sagittal sections derived from the four experimental groups of mice. Images from cerebral cortex shown. UbK63 immuno-reactivity quantified in 10 different fields from the cortical regions from each group.
as §5
In healthy neurons autophagosomes are efficiently cleared upon axonal retrograde transport and lysosomal encountering and, therefore, are rarely found in neurites or cell bodies unless lysosomal-dependent autophagosome clearance is disrupted (Boland et al. (2008) J. Neurosci. 28: 6926-6937; Maday et al. (2012) J. Cell Biol. 196: 407-417; Lie & Nixon (2019) Neurobiol. Dis. 122: 94-105).

[16] = systemic administration; cited from earlier work
MPS-IIIA mice [17] = settings: mouse, in vivo, sc, 1 mg/kg/day
WT mice [18] = test: Lysosomal autophagic axis in WT mice; assay type: in vivo, mouse; settings: WT mice upon treatment
From the text: Therefore, the present data support a model in which progressive amyloid build-up into lysosomes impairs autophagic flux. Mechanisms underlying such effect involve the negative impact of amyloids on autophagosome clearance through the prevention of lysosome encountering. […] This might be a consequence of the relief of the autophagy block and/or might be a result of a more specific effect of CLR01 on lysosomal-mediated signaling pathways inducing ALP, signaling that may be impaired by amyloid deposition in MPS-IIIA.

[19] = MPS-IIIA brain, daily s.c. injection for 4.5 months
[20] = CLR01-treated MPS-IIIA brain vs WT
[21] = MPS-IIIA brain lysates, CLR01 vs saline

O=P(O)(O)Oc1c2c(c(OP(=O)(O)O)c3c1C1CC3c3cc4c(cc31)C1CC4c3ccccc31)C1CC2c2cc3c(cc21)C1CC3c2ccccc21 [CLR01]
LAMP1 compartment volume (WT mice [1]): did not modify LAMP1 compartment volume | LAMP1-positive immunostaining, cerebral cortex (MPS-IIIA mice [2]): markedly reduced LAMP1-positive immunostaining | memory deficit (freezing time, contextual fear conditioning) (MPS-IIIA mice [3]): rescue of memory deficits; also recorded: fully rescued | safety margin [4]: high safety margin | neuroinflammatory markers GFAP and IBA1, immunofluorescence (MPS-IIIA mice [5]; 2 months of treatment, at 7 months of age): strong reduction of inflammation | neuro-inflammation by GFAP and Iba1 IHC, cortex and striatum (MPS-IIIA mice [5]; daily s.c. injection for 4.5 months, 9 months of age): reduction in both inflammatory markers; also recorded: strongly reduced neuro-inflammation | lysosome size/number (WT mice [6]): did not affect lysosome size/number | inflammatory response by GFAP and Iba1 IHC (WT mice [7]): did not elicit inflammatory response | total number of lysosomes (MPS-IIIA mice [8]; CLR01-treated MPS-IIIA brain vs control MPS-IIIA mice): remained significantly higher than control MPS-IIIA mice | average lysosomal size (EM) (MPS-IIIA mice [8]; [19]): significant reduction in the average lysosomal size | number of abnormal-sized lysosomes (>800 nm) (MPS-IIIA mice [8]; [19]): decreased number of abnormal-sized lysosomes | thioflavin-positive inclusions / amyloid deposition in brain (MPS-IIIA mice [9]; MPS-IIIA mice, daily s.c. injection for 4.5 months from 4.5 months of age, analysed at 9 months): reduction of amyloid deposition; also recorded: almost complete absence of thioflavin-positive inclusions | amyloid proteins by Thioflavin S staining (MPS-IIIA mice [9]; asymptomatic MPS-IIIA mice, 1 mg/kg/day s.c. osmotic pump, 2 months from 5 months of age, analysed at 7 months): complete disappearance of amyloid proteins | amyloid deposits by Thioflavin S staining in different brain regions (MPS-IIIA mice [9]; symptomatic MPS-IIIA mice, 1 mg/kg/day s.c. osmotic pump, 1 month from 6 months of age, analysed at 7 months): partial removal of amyloid deposits | UbK63 IHC signal, cerebral cortex (MPS-IIIA mice [10]): significant signal reduction | LC3-II levels compared to WT (MPS-IIIA mice [11]; [20]): remained significantly higher than WT | LC3-II protein level (Western blot, normalized to β-actin) (MPS-IIIA mice [11]; [21]): reduction; also recorded: damped down | p62 protein level (Western blot, normalized to β-actin) (MPS-IIIA mice [11]; [21]): reduction; also recorded: damped down | synaptic abnormalities (synaptic vesicles/synaptic cleft length ratio, TEM) (MPS-IIIA mice [12]): able to rescue synaptic abnormalities | protection against protein aggregation and neurodegeneration [13]: very effective in protecting against protein aggregation and neurodegeneration | LC3 staining (WT mice [14]): a significant change in LC3 staining was observed | number of LC3 dots (both large and normal sized) compared to WT brain (MPS-IIIA mice [15]; [20]): remained significantly higher compared to WT brain | autophagic flux / autophagy block (MPS-IIIA mice [15]; MPS-IIIA brain, conclusion from LC3 dots): autophagic flux was re-activated; also recorded: able to relief autophagy block | large LC3 dots (>0.8 μm^2) (MPS-IIIA mice [15]; MPS-IIIA brain, cortical regions, daily s.c. injection for 4.5 months): significantly reduced large LC3 dots | brain targeting / blood-brain barrier crossing [16]: cross the blood-brain barrier | build-up of amyloid components (α-Synuclein, PrP, Aβ1-42, Tau), proteinase K-resistant (MPS-IIIA mice [17]): efficient inhibition of the build-up of several amyloid components | lysosomal autophagic axis (WT mice [18]): no significant change in lysosomal autophagic axis
